Experimental data from PubChem BioAssay (NCI).
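1) Cells in 96-well plates. 2) Compound, 48 h, 5 concentrations. 3) Linear interpolation between surrounding doses. 4) Unreached endpoint = highest concentration. TGI is the concentration that stops growth completely.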

Key:
Experiment in all cases: NCI tumour cell line growth inhibition, 48 h
[1] = system: EKVX NSCLC
[2] = system: HCT-116 colon
[3] = system: K-562 leukemia
[4] = system: MOLT-4 leukemia
[5] = system: SK-MEL-5 melanoma
[6] = system: SNB-19 CNS
[7] = system: UACC-257 melanoma
[8] = system: 786-0 renal
[9] = system: MDA-MB-231 breast
[10] = system: T-47D breast

Row | SMILES | TGI [1] | TGI [2] | TGI [3] | TGI [4] | TGI [5] | TGI [6] | TGI [7] | TGI [8] | TGI [9] | TGI [10]
1 | CN(C)CCNC(=O)c1cc(Cl)cc2ccc(-c3ccccc3)nc12 | 21.5 µM | 10.7 µM | 8.17 µM | 2.92 µM | 3.82 µM | 18.8 µM | 10.8 µM | – | – | –
2 | Cn1c(=O)c(-c2ccccc2)c(O)c2ccccc21 | > 100 µM | > 100 µM | > 100 µM | > 100 µM | > 100 µM | > 100 µM | > 100 µM | > 100 µM | > 100 µM | –
3 | CC(C)N1CC2CC(CN(C(=O)c3ccccc3)C2)C1 | > 100 µM | – | > 100 µM | > 100 µM | > 100 µM | > 100 µM | > 100 µM | > 100 µM | – | –
4 | O=c1cc(-c2ccncc2)[nH]c2cc3c(cc12)OCO3 | > 100 µM | > 100 µM | – | > 100 µM | > 100 µM | > 100 µM | > 100 µM | > 100 µM | > 100 µM | > 100 µM
5 | CCC(O)(Cc1ccc(OC)cc1)c1ccc(OC)cc1 (stereo unspecified) | > 100 µM | > 100 µM | > 100 µM | > 100 µM | > 100 µM | > 100 µM | > 100 µM | > 100 µM | > 100 µM | –
6 | Cc1ccc(C(=O)N/N=C(\N=Nc2ccccc2)c2ccc(N(C)C)cc2)cc1 | > 100 µM | > 100 µM | > 100 µM | > 100 µM | > 100 µM | > 100 µM | > 100 µM | > 100 µM | > 100 µM | –
7 | CSc1nc(NC(C)C)c2c(n1)Sc1nc3ccccc3n1N=C2 | > 100 µM | 21.5 µM | > 100 µM | > 100 µM | 23.9 µM | 39 µM | > 100 µM | 16.7 µM | 30.2 µM | –
8 | O=C1C=CC=C/C1=C1\N=C(c2ccccc2OCC(=O)c2ccccc2)SS1 | > 100 µM | > 100 µM | > 100 µM | 47.2 µM | – | > 100 µM | > 100 µM | > 100 µM | > 100 µM | –
9 | CC(=O)OCC1OC(n2c(-c3ccccc3)c(N=Nc3ccccc3)c(C)c(C#N)c2=S)C(OC(C)=O)C(OC(C)=O)C1OC(C)=O (stereo unspecified) | – | > 100 µM | > 100 µM | > 100 µM | > 100 µM | > 100 µM | > 100 µM | > 100 µM | > 100 µM | > 100 µM
